The record followed here is ChEMBL document CHEMBL5291721, “A preclinical secondary pharmacology resource illuminates target-adverse drug reaction associations of marketed drugs” (Nat Commun, 2023).

One assay has as its target Vasopressin V2 receptor (Homo sapiens, UniProt P30518).
In assay [1] the target is T1, Muscarinic acetylcholine receptor M2 (Homo sapiens, UniProt P08172).
T1 sequence (P08172 whole entry): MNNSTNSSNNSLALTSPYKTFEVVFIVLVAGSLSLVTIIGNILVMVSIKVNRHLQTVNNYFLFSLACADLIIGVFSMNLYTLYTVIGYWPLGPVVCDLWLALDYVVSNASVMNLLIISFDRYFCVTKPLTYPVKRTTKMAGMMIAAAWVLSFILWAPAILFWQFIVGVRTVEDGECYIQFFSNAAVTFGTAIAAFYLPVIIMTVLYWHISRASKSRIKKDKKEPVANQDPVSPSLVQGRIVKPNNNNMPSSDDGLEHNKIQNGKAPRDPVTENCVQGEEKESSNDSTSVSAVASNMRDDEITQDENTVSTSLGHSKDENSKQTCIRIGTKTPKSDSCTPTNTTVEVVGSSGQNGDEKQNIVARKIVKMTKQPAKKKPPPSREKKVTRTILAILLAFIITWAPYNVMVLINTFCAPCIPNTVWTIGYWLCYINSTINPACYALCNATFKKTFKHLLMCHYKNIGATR
Format: functional, cell-based.

The target of assay [2] is 5-hydroxytryptamine receptor 2A (Homo sapiens, UniProt P28223). Format: functional, cell-based.
Chain of 5-hydroxytryptamine receptor 2A (P28223 whole entry): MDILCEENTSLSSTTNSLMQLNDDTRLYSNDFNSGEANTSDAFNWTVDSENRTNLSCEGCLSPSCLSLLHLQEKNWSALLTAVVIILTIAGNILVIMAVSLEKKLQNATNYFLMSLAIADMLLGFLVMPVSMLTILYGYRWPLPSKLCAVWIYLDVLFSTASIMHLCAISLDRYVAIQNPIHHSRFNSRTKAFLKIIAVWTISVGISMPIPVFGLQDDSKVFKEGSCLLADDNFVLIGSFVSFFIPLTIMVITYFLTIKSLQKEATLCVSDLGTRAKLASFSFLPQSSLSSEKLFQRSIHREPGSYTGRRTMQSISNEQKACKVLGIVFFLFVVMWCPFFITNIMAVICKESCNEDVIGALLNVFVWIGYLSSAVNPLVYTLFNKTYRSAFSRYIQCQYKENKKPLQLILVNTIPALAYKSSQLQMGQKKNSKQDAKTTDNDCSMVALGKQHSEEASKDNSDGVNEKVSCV
For a further assay, the target named is Melanocortin receptor 4 (Homo sapiens, UniProt P32245).
Chain of Melanocortin receptor 4 (P32245 whole entry): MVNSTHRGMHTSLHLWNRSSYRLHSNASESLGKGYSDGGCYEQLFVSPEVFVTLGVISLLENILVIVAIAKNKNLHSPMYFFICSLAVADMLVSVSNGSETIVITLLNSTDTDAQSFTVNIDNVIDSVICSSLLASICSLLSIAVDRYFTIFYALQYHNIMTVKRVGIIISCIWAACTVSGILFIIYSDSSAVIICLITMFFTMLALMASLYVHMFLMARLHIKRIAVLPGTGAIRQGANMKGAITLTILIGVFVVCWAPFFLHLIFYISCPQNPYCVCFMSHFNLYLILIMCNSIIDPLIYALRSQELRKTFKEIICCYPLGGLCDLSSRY
Assay [3] has as its target Kappa-type opioid receptor (Homo sapiens, UniProt P41145).
In another assay the target is T2, Glucocorticoid receptor (Homo sapiens, UniProt P04150).
T2 sequence (P04150 whole entry): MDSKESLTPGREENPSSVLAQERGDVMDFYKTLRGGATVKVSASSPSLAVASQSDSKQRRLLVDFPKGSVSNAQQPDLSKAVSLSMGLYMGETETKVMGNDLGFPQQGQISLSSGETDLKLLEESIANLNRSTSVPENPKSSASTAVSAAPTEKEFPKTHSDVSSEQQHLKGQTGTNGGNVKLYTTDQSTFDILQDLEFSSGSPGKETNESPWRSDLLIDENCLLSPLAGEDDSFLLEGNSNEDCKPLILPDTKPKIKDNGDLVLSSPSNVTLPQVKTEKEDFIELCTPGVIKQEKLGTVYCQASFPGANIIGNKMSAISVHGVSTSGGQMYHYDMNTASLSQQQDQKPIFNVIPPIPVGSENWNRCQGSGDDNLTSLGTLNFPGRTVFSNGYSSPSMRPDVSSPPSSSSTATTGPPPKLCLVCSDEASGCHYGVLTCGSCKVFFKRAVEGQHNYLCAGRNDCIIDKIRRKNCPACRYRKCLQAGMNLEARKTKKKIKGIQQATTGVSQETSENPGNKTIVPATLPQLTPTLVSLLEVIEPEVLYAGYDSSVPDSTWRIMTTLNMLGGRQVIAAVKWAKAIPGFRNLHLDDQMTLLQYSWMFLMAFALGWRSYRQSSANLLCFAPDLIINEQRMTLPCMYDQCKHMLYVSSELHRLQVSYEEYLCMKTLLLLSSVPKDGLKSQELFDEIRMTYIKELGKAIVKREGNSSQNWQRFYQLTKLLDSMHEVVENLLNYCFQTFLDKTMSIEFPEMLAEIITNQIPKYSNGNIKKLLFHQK

The target of another assay is T3, Progesterone receptor (Homo sapiens, UniProt P06401).
T3 sequence (P06401 whole entry): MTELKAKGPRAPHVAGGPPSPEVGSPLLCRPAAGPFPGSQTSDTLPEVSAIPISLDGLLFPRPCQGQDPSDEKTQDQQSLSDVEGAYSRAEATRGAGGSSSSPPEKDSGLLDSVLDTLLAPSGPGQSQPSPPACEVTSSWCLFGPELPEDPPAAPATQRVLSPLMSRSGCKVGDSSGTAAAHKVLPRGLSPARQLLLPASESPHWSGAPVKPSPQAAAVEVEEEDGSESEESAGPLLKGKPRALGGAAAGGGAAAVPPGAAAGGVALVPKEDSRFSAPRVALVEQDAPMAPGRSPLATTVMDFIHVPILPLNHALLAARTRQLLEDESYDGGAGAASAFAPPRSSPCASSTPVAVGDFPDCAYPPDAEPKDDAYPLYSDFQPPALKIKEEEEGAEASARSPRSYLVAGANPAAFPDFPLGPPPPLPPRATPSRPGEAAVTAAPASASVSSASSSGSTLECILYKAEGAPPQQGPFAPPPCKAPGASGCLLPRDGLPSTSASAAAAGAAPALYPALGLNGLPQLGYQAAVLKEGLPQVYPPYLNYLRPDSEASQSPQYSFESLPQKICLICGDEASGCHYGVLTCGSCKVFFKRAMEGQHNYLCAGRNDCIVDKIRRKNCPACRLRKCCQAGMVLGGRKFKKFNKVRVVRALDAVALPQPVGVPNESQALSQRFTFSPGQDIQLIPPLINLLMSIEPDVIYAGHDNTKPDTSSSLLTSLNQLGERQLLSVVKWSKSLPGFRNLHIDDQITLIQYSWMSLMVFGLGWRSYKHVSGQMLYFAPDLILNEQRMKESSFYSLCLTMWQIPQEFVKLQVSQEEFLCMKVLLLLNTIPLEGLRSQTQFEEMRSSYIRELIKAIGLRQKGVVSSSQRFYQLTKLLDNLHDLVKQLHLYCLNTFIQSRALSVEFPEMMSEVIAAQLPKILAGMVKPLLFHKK
The assay is classed as functional.

For another assay, the target named is Prothrombin (Homo sapiens, UniProt P00734). The assay is classed as functional.
For assay [4], the target named is T4, 5-hydroxytryptamine receptor 1A (Homo sapiens, UniProt P08908).
T4 sequence (P08908 whole entry): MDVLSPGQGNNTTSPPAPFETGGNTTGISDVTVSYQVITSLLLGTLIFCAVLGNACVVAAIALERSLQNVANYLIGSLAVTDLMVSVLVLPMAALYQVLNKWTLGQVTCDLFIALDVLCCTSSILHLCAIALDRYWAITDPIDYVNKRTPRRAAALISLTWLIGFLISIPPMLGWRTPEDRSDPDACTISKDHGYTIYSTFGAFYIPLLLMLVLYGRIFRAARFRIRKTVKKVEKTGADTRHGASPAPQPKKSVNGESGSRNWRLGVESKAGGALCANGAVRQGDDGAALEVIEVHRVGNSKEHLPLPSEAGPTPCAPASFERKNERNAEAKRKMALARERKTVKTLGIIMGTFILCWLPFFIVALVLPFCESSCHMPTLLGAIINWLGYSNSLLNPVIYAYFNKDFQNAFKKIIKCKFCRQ

The target in assay [5] is Sodium-dependent dopamine transporter (Homo sapiens, UniProt Q01959).
Chain of Sodium-dependent dopamine transporter (Q01959 whole entry): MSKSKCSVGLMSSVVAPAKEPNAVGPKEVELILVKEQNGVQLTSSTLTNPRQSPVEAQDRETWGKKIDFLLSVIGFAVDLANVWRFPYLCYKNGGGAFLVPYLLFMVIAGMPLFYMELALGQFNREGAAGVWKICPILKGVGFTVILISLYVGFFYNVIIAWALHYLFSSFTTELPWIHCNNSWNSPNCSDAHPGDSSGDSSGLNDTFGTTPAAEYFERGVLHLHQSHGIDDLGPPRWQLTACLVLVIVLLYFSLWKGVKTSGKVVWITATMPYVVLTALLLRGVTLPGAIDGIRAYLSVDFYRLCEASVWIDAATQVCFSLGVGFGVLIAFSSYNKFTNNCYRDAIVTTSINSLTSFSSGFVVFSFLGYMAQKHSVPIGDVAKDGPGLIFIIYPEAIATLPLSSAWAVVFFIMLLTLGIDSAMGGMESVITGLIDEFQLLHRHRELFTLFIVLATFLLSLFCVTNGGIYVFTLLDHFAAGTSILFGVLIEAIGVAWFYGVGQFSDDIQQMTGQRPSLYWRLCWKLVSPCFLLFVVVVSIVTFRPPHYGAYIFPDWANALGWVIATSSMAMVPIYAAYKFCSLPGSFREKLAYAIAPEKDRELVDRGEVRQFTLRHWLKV
Further: assay procedure not described here.

Chain of Vasopressin V2 receptor (P30518 whole entry): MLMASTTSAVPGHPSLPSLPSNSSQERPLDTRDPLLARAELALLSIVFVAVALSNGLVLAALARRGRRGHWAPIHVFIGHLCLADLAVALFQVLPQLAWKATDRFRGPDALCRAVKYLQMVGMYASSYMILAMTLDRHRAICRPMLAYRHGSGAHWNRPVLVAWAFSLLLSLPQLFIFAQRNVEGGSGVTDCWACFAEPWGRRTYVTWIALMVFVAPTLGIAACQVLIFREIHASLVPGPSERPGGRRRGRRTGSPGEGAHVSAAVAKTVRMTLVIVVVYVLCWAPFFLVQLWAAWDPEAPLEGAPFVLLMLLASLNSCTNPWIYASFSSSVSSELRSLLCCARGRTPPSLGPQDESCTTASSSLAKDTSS
Chain of Kappa-type opioid receptor (P41145 whole entry): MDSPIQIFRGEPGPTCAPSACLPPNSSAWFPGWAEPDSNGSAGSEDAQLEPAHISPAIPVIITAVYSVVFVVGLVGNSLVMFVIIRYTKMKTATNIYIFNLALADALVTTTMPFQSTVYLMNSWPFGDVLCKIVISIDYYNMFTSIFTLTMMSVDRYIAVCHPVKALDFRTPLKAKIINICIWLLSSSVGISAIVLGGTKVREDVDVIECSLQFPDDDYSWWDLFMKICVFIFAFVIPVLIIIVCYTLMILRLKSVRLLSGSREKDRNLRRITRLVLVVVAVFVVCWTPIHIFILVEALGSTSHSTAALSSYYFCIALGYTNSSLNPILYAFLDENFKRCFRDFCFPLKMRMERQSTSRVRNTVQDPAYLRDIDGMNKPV

As a reminder, the AC50 is the concentration giving half of the maximal activity seen. A higher AC50 goes with weaker potency. With `C=CC1=C(C(=O)O)N2C(=O)[C@@H](NC(=O)/C(=N\O)c3csc(N)n3)[C@H]2SC1`, the concentration at half-maximal activity (AC50) at Vasopressin V2 receptor is > 30 µM; in assay [1], > 10 µM; in [2], > 30 µM; at Melanocortin receptor 4 it was > 30 µM; in assay [3], > 10 µM.
For the compound `CC(C)C[C@H](NC(=O)[C@H](Cc1ccccc1)NC(=O)c1cnccn1)B(O)O` [BORTEZOMIB], the concentration at half-maximal activity (AC50) (on Vasopressin V2 receptor; in [1]; in assay [2]; on Melanocortin receptor 4; on Glucocorticoid receptor; in assay [3]) was > 30 µM throughout. Besides, the AC50 at Progesterone receptor was > 30 µM.
Turning to `CCN(CC)CCn1c(=O)c(Cc2ccc(OC)cc2)nc2ccccc21` [CAROVERINE], the AC50 on Vasopressin V2 receptor was > 30 µM; in assay [1], > 30 µM; in [2] it was 9.7 µM; at Melanocortin receptor 4 it was > 30 µM; on Glucocorticoid receptor, > 30 µM; in assay [3], 5.34 µM. Also, the AC50 on Progesterone receptor is > 30 µM.
Take `CN(C)CCN(Cc1ccccc1)c1ccccn1` [TRIPELENNAMINE]: the AC50 on Vasopressin V2 receptor was > 10 µM; in [1] it was > 10 µM; at Prothrombin, > 30 µM; in [4] it was > 30 µM; in [2] it was 7.3 µM; at Melanocortin receptor 4 it was > 10 µM. The half-maximal activity concentration (AC50) on Glucocorticoid receptor is > 10 µM; in assay [3] it was 6.25 µM; in [5] it was 0.619 µM.
Consider `C[C@]12CCC(=O)C=C1CC[C@H]1[C@@H]3CC[C@](O)(C(=O)CO)[C@@]3(C)C[C@H](O)[C@@]12F` [FLUDROCORTISONE], for which the concentration at half-maximal activity (AC50) on Vasopressin V2 receptor was > 30 µM; in [1] it was > 30 µM; in assay [2] it was > 30 µM; at Melanocortin receptor 4, > 30 µM; in assay [3], > 10 µM.
Take `OCCOCCN1CCN(C(c2ccccc2)c2ccc(Cl)cc2)CC1` (centres undefined) [HYDROXYZINE]: the concentration at half-maximal activity (AC50) is > 30 µM on Vasopressin V2 receptor; > 10 µM in assay [1]; 6 µM in [2]; > 30 µM at Melanocortin receptor 4; 8.65 µM in [3].
Turning to `CNC1(C)C2CCC(C2)C1(C)C` (centres undefined) [MECAMYLAMINE], the half-maximal activity concentration (AC50) (at Vasopressin V2 receptor; in assay [1]; in [2]; on Melanocortin receptor 4; at Glucocorticoid receptor; in assay [3]) was > 10 µM each time. The concentration at half-maximal activity (AC50) at Progesterone receptor was > 10 µM.
With `CC(=O)SCC(Cc1ccccc1)C(=O)NCC(=O)OCc1ccccc1` (centres undefined) [RACECADOTRIL], the concentration at half-maximal activity (AC50) on Vasopressin V2 receptor was > 30 µM; in assay [1], > 30 µM; in [2], > 30 µM; on Melanocortin receptor 4 it was > 30 µM; at Glucocorticoid receptor it was > 30 µM; in assay [3] it was 8.6 µM. Also, the concentration at half-maximal activity (AC50) at Progesterone receptor is > 30 µM.
`CCOc1ccccc1OCCN[C@H](C)Cc1ccc(OC)c(S(N)(=O)=O)c1` [TAMSULOSIN]: the half-maximal activity concentration (AC50) at Vasopressin V2 receptor was > 30 µM; in assay [1], > 10 µM; in assay [2], > 30 µM; at Melanocortin receptor 4, > 30 µM; in assay [3] it was > 30 µM.
With `C[C@H](Cn1cnc2c(N)ncnc21)OCP(=O)(O)O` [TENOFOVIR ANHYDROUS], the AC50 (at Vasopressin V2 receptor; in assay [1]; in assay [2]; at Melanocortin receptor 4; on Glucocorticoid receptor; in assay [3]) was > 30 µM throughout. Further, the concentration at half-maximal activity (AC50) at Progesterone receptor is > 30 µM.
